According to US20260137697A1, “THIAZOLO[5,4-D]PYRIMIDINE COMPOUNDS, COMPOSITIONS COMPRISING THEM AND USES THEREOF” (University de Montreal, priority 2022, published 2026):

Legend:
BRAF = target: T1, BRAF (Homo sapiens, UniProt P15056); assay: BRAF kinase activity assay (ADP-Glo); assay type: biochemical; details: Table 3; 10 μM ATP, kinase-dead MEK1 substrate
T1 construct: GST; purchased Millipore Sigma B4062-10UG
Procedure: (§1) Compound preparation: solid samples of each substance in 1dram vials were suspended in DMSO (Fisher Scientific) at a stock concentration of 20 mM. Stocks were kept at −20° C. and protected from light. If solubility of the compound at 20 mM appeared to be an issue, the initial concentration of the DMSO stock was changed to 10 mM or 5 mM.
(§2) In vitro enzymatic reactions were used for evaluating compounds intrinsic activity against BRAF, CRAF and ARAF. For BRAF and CRAF, 0.375 nM of purified GST-tagged kinases (cat. No. B4062-10UG and cat. No. R1656-10UG respectively from Millipore Sigma) were incubated with 75 nM of kinase-dead MEK1 substrate (cat. No. 40075; BPS Bioscience) in the presence of 10 μM of Ultrapure ATP (cat. No. V9102; Promega; part V915A) with and without the test compound in a buffer containing 50 mM HEPES pH 7.5, 10 mM MgCl2, 1 mM EDTA, 0.01% Brij-35 and 2 mM DTT. Separate reactions were performed with the MEK1 substrate and ATP as a blank control. ARAF kinase reactions were rigorously the same with the exception that kinase concentration was raised to 3.75 nM (cat. No. 1768-0000-1; Reaction Biology).
(§3) For compound treatment, 5 μL/well of test substance solution are placed in a 384-well proxyplate (Perkin Elmer) and mixed with 2× concentrated kinase reactions. The dilution series is selected so that nine concentrations cover a range from 100 nM to 0.01 nM. […] The final concentration of DMSO in the assay is set at 0.05%.
(§4) BRAF and CRAF kinase reactions were carried out for a total of 2 hours at 30° C. and then stopped by 1/2 dilution in ADP-Glo Reagent (cat. No. V9102; Promega; part V912C). Reactions were then incubated for 1 h at room temperature before addition of one volume of Kinase Detection Reagent (cat. No. V9102; Promega; part V917A). Plates were then equilibrated at room temperature for 30 minutes before detection of luminescence on a Synergy Neo2 plate reader (Biotek). The effect of each compound dilution on BRAF and CRAF kinase activity was expressed as % inhibition and calculated as follows. First, the internal 100% inhibition control (average of luminescence in kinase reactions comprising kinase dead MEK1 substrate alone) was subtracted from each data point. The average of DMSO (vehicle) controls (set as 0% inhibition) was established and used to calculate % inhibition:
(§5) IC50 values were obtained by plotting the kinase inhibition values and fitting the dose-activity curves using a log(agonist) versus response—variable slope (four parameters) function using either GraphPadPrism (V7.0) or Dotmatics Screening Ultra platform. Standards included in the ARAF kinase assay were Belvarafenib (MedChem Express cat. No. HY-109080; CAS No. 1446113-23-0), LXH254 (MedChem Express cat. No. HY-112089; CAS No. 1800398-38-2) and BGB283 (cat. No. HY-18957; CAS No. 1446090-79-4).

pERK, HCT116 cells = assay: Phospho-ERK inhibition, AlphaLISA p-ERK 1/2, HCT-116; assay type: cell-based, human; details: Table 3; for IC50: HCT116 cells (KRAS G13D), 1 h treatment; for HCT116 pERK (Ymin %): lowest % inhibition value of the pERK IC50 curve, above −20% = no paradoxical induction
Procedure: All cancer cell lines (A375, A101D, A2058, RKO, HT29 SK-MEL 30, IPC298, HepG2, HCT-116, Lovo, SW620, SW480, NCI-H358, NCI-H2122, Calu-6, NCIH2087, NCIH1755, NCIH1666 and Mewo) were obtained from ATCC and cultured in RPM1-1640 medium (Gibco) supplemented with 5% heat inactivated fetal bovine serum (FBS, Wisent) at 37° C. under 5% CO2. Cells were maintained in T175 flasks (Greiner). They were passaged by removing the culture medium, washing once in 10 mL of room temperature Phosphate Buffered Saline (PBS; Wisent) and incubating at 37° C. with 2 mL of 0.05% Trypsin (Thermo-Fisher). Trypsin was then inactivated by adding complete growth medium and the cells were then replated in a T175 culture dish at the appropriate dilution. All cell lines were routinely tested for mycoplasma contamination. Tissue type and mutational status of each cell line can be found in Table B.
(c) Measurement of Phospho-ERK Inhibition in Cultivated Human Cancer Cell Lines by the AlphaLISA® SureFire® Ultra™ p-ERK 1/2 (Thr2O2/Tyr204)
AlphaLISA® SureFire® Ultra™ p-ERK 1/2 (Thr202/Tyr204) analysis was conducted on cells plated in 100 μL of complete RPMI-1640 growth medium in 96-well flat-bottomed transparent dishes (Costar) at a density indicated in Table C. Cells were maintained overnight at 37° C. under 5% CO2 before treatment with compounds' dilution series for one hour. The cell density in cells/cm^2 corresponds to cell number divided by the area of one well of a 96-well plate (0.143 cm^2).
In a dilution series 100 μL/well of test substance dilution prepared in complete RPMI-1640 growth media was added to the cells. The dilution series is selected so that ten concentrations cover a range from 10 μM to 0.33 nM. If necessary, the initial concentration of 10 μM is increased to 100 μM or lowered to 1 μM (as in the case of A375 and H1666 cells, which are generally more sensitive to the compounds) and further dilution is carried out accordingly. The final concentration of DMSO in the assay is set at 0.5%.
After treatment, media was removed, and cells were lysed in 50 μL of 1× AlphaScreen Ultra Lysis Buffer (Perkin Elmer). The AlphaLISA® SureFire® Ultra™ p-ERK 1/2 (Thr202/Tyr204) (PerkinElmer) reactions were performed with 5 μL of cell lysate according to the manufacturer's specifications in 384-well proxyplates (Perkin Elmer) followed by overnight incubation of the reactions at room temperature in a humidified chamber. After completion of the reactions, the signals were recorded on an EnVision plate reader (Perkin Elmer) using built in AlphaLISA® settings.
The effect of each compound dilution on the pERK signal was expressed in % inhibition and calculated as follows. An internal 100% inhibition control (1 μM trametinib, cat. No. HY-10999; MedChem Express; CAS No. 871700-17-3) was included in each plate and used as a measure of pERK background. First, the value obtained for trametinib was subtracted from each data point. The average of DMSO (vehicle) controls (set as 0% inhibition) was established and used to calculate % inhibition:
The ability of each compound to inhibit pERK signal was expressed as an IC50 value obtained by plotting the inhibition values for each data point of a dilution series and fitting the obtained curves using a log(agonist) versus response—variable slope (four parameters) function using GraphPadPrism (V7.0) or Dotmatics Screening Ultra platform.
When present, paradoxical pERK induction is inferred from the negative % inhibition values observed in the pERK IC50 curves of a compound.

CRAF = target: T2, CRAF (Homo sapiens, UniProt P04049); assay: CRAF kinase activity assay (ADP-Glo); assay type: biochemical; details: Table 3; 10 μM ATP, kinase-dead MEK1 substrate
T2 construct: fused on or other part: GST tag (N-terminal according to the vendor's product)
T2 sequence (P04049 whole entry Y340E/Y341E, form open, the tested form may be a part): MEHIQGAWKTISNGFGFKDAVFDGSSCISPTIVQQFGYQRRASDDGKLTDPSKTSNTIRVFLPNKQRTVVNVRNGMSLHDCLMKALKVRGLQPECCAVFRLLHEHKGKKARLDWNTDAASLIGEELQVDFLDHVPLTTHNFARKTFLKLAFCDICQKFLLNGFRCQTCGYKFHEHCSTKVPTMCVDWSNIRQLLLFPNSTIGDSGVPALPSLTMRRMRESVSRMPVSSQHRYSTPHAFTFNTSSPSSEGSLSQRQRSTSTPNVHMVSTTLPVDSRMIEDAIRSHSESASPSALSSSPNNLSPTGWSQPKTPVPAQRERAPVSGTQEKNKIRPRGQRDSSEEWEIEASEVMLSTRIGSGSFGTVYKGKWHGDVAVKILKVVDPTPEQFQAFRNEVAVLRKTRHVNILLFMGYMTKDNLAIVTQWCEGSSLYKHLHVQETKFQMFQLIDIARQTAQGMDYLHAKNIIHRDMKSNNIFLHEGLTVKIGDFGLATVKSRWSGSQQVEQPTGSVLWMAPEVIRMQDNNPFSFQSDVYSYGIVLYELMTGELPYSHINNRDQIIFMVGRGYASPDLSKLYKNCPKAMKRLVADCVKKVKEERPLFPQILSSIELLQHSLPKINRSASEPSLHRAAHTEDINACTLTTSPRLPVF
Procedure: as §1, §2, §3, §4, §5

T1 sequence (P15056 whole entry): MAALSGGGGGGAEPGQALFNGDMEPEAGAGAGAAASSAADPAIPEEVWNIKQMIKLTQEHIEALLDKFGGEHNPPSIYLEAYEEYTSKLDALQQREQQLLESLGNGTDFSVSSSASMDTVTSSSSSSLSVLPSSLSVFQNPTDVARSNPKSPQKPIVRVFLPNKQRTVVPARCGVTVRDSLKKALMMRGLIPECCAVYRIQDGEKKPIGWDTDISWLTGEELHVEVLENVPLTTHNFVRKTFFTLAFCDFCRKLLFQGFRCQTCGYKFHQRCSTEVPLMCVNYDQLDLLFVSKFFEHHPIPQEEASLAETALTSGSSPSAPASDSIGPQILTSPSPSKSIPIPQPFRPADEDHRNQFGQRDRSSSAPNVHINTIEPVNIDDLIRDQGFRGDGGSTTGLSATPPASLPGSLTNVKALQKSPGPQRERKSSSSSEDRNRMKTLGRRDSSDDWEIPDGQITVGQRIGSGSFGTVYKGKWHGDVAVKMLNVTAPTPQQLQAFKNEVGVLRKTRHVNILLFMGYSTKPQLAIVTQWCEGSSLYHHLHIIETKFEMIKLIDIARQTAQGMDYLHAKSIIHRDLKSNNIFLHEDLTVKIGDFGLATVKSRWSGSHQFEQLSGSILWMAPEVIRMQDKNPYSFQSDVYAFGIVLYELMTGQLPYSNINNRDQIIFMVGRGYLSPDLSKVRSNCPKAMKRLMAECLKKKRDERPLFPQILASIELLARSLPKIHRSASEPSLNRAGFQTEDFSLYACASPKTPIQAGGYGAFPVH

Structure (SMILES) | IC50 (BRAF) | IC50 (pERK, HCT116 cells) | HCT116 pERK (Ymin %) (pERK, HCT116 cells) | IC50 (CRAF) | IC50 (pERK, HCT116 cells; Homo sapiens, HCT-116)
O=C(c1cn(-c2nc3c(Nc4c(F)ccc(NS(=O)(=O)c5cccc(Cl)c5Cl)c4F)ncnc3s2)c2ccccc12)N1CCC2CCCCC2(O)C1 (centres unmarked) [Example 89] | 1 to 10 nM | < 500 nM | −16% | > 50 nM | 
O=C(c1cn(-c2nc3c(Nc4c(F)ccc(NS(=O)(=O)c5cccc(Cl)c5Cl)c4F)ncnc3s2)c2ccccc12)N1C2CCC1CN(CCO)C2 [Example 98] | 1 to 10 nM |  |  | < 10 nM | < 500 nM
O=S(=O)(Nc1ccc(F)c(Nc2ncnc3sc(-n4cc(S(=O)(=O)C5CCCC5)c5ccccc54)nc23)c1F)c1cccc(Cl)c1Cl [Example 64] | 1 to 10 nM | < 500 nM | −4% | > 50 nM | 
CN(Cc1cccnc1)C(=O)c1cn(-c2nc3c(Nc4c(F)ccc(NS(=O)(=O)c5cccc(Cl)c5Cl)c4F)ncnc3s2)c2ccccc12 [Example 46] | 1 to 10 nM | < 500 nM | 1% | < 10 nM | 
O=S(=O)(Nc1ccc(F)c(Nc2ncnc3sc(-n4cnc5c(N6CCNCC6)cccc54)nc23)c1F)c1cccc(Cl)c1Cl [Example 156, 2,3-dichloro-N-[2,4-difluoro-3-[[2-(4-piperazin-1-ylbenzimidazol-1-yl)thiazolo[5,4-d]pyrimidin-7-yl]amino]phenyl]benzenesulfonamide] | < 1 nM |  |  | < 10 nM | < 500 nM
Cc1ncn(-c2nc3c(Nc4c(F)ccc(NS(=O)(=O)c5cccc(Cl)c5Cl)c4F)ncnc3s2)c1C [Example 103] | 1 to 10 nM | 500 to 1000 nM | −7% | < 10 nM | 
CC(C)(O)C1CCCN1C(=O)c1cn(-c2nc3c(Nc4c(F)ccc(NS(=O)(=O)c5cccc(Cl)c5Cl)c4F)ncnc3s2)c2ccc(F)cc12 (centres unmarked) [Example 101] | > 10 nM | < 500 nM | 0% | 10 to 50 nM | 
N#CC1CN(C(=O)c2cn(-c3nc4c(Nc5c(F)ccc(NS(=O)(=O)c6cccc(Cl)c6Cl)c5F)ncnc4s3)c3ccccc23)C1 [Example 54] | 1 to 10 nM | < 500 nM | −6% | < 10 nM | 
Cc1c(F)cccc1S(=O)(=O)Nc1ccc(F)c(Nc2ncnc3sc(-n4cc(C(=O)N(C)Cc5ccncc5)c5ccccc54)nc23)c1F [Example 30] | 1 to 10 nM | < 500 nM | −3% | 10 to 50 nM | 
O=C(c1cn(-c2nc3c(Nc4c(F)ccc(NS(=O)(=O)c5cccc(Cl)c5Cl)c4F)ncnc3s2)c2ccc(F)cc12)N1C2CCC1COC2 [Example 102] | 1 to 10 nM | < 500 nM | 0% | < 10 nM | 
